Data reported in patent US6586435B2, “Benzimidazolone derivatives displaying affinity at the serotonin and dopamine receptors” (Boehringer Ingelheim Pharma KG, priority 2000, dated 2003).

Legend:
5-HT1A human receptors = target: T1, 5-HT1A human receptors (Homo sapiens, UniProt P08908); assay: 5-HT1A radioligand receptor binding assay ([3H]-8-OH-DPAT); settings: membranes from CHO cells
T1 construct: expressed in transfected cells; host or cells: CHO cells
T1 sequence (P08908 1-422): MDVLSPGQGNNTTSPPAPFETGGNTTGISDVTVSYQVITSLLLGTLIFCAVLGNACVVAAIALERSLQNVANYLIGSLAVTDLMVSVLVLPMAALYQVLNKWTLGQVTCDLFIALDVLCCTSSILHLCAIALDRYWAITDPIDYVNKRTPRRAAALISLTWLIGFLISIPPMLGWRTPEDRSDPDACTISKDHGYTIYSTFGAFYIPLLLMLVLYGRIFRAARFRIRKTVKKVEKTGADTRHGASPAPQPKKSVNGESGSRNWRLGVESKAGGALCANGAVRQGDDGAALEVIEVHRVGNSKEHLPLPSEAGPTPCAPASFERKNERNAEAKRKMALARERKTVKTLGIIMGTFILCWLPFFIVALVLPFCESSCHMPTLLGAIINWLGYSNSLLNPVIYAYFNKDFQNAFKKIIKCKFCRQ
Method: 5-HT1A, Radioligand Receptor Binding Assay
Membranes from CHO cells, expressing 5-HT1A human receptors were suspended in incubation buffer.
Binding assays were performed in MultiProbe 204 pipetting system (Packard), according to a predetermined mapping, consistent with the software Screen. The compounds were tested in singlicate at one concentration (10^−7 M) in a total volume of 1000 μl. 980 μl of diluted membranes, 10 μl DMSO or unlabelled ligand, and 10 μl of [^3H]-8-OH-DPAT (0.6-0.7 nM) were incubated for 60 minutes at 27° C. The reaction was stopped by rapid filtration through Tomtec Cell Harvester (48 wells) using Filtermat B (presoaked in 0.1% PEI) filters. Filters were washed with ice-cold 50 mM Tris-HCl (pH 7.4) buffer (9×700 μl), dried, covered with MeltiLex B/HS scintillator sheets (Wallac) and heated at 80° C. to 90° C. for about 10 minutes, transferred into plastic sample bags (Wallac), sealed and put into 1024 Beta Plate scintillation counter (Wallac). Non-specific binding was determined in the presence of 5-HT (10^−5 M).
The specific radioligand binding to the receptor was defined by the difference between total binding and non-specific binding, determined in the presence of an excess of unlabelled ligand. Results were expressed as percentage of control specific binding obtained in the presence of the compounds. The affinity values (IC50) for the compounds were obtained by a nonlinear least squares regression analysis on the basis of a one binding site model.

D4 human receptors = target: T2, D4 human receptors (Homo sapiens, UniProt P21917); assay: D4 radioligand receptor binding assay ([3H] YM-09151-2); settings: compound 10^−7 M, singlicate; membranes from CHO cells; [3H] YM-09151-2 0.15-0.25 nM
T2 construct: expressed in transfected cells; host or cells: CHO cells
T2 sequence (P21917 1-419): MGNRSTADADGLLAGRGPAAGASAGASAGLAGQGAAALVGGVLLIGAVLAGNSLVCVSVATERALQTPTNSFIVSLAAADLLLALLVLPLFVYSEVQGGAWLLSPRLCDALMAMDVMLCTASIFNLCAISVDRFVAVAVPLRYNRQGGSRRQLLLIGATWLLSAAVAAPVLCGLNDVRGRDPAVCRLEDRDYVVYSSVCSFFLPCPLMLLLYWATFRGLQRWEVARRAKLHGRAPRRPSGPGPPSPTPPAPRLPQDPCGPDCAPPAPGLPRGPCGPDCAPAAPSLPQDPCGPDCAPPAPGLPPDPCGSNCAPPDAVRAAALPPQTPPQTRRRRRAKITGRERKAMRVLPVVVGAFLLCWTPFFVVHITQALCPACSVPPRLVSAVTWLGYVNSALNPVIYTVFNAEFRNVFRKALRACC
Method: D4 Radioligand Receptor Binding Assay
Membranes from CHO cells, expressing D4 human receptors were suspended in incubation buffer.
Binding assays were performed in MultiProbe 204 pipetting system (Packard), according to a predetermined mapping, consistent with the software Screen. The compounds were tested in singlicate at one concentration (10^−7 M) in a total volume of 1000 μl (980 μl of diluted membranes, 10 μl DMSO or unlabelled ligand, and 10 μl of [^3H] YM-09151-2 (0.15-0.25 nM). After incubation for 120 minutes at 27° C., the reaction was stopped by rapid filtration through Tomtec Cell Harvester (48 wells) using Filtermat B (presoaked in 0.1% PEI) filters. Filters were washed with ice-cold 50 mM Tris-HCl (pH 7.4) buffer (9×700 μl), dried, covered with MeltiLex B/HS (Wallac) scintillator sheets and heated in oven at 80° C.-90° C. for about 10 minutes, transferred into plastic sample bags (Wallac), sealed and put into 1024 Beta Plate scintillation counter (Wallac). Non-specific binding was determined in the presence of clozapine dissolved in DMSO to a final concentration of 10^−5 M.
The specific radioligand binding to the receptor was defined by the difference between total binding and non-specific binding, determined in the presence of an excess of unlabelled ligand. Results were expressed as percentage of control specific binding obtained in the presence of the compounds.

[1] = target: T3, 5-HT1A receptor (CHO/5-HT1A cells) (Homo sapiens, UniProt P08908); assay: 5-HT1A functional assay (cAMP); format: cell-based; settings: 10 μM compound, % inhibition of the cAMP accumulation induced by 10 μM FSK, read-out: 5-HT1A cAMP % Inhibition (agonist activity)
T3 construct: expressed in transfected cells; host or cells: CHO/5-HT1A cells
T3 sequence (P08908 1-422): T1 sequence (P08908 1-422)
Method: 5-HT1A Functional Assay (cAMP)
CHO/5-HT1A cells were random seeded at a density of about 200,000/well in 24 well plates the day prior to the experiment. On the day of the experiment, cells were pretreated for 15 minutes at 37° C. with 500 μM isobutylmethylxantine (IBMX) dissolved in culture medium without serum. Wells were then divided in different groups in duplicate as follows: control, 10 μM FSK, 10 μM FSK+1 μM 5-HT as positive standard and 10 μM FSK+10 μM of the different compound under evaluation. Sample solutions were added and incubated for additional 15 minutes at 37° C. After incubation, medium was aspirated and the reaction stopped by adding 200 μl of lysis buffer. Plates were shaken for 5 minutes, then the lysate was removed and samples were stored at 4° C. until the day of the assay. For the cAMP evaluation, samples were properly diluted and the cAMP content was measured by an enzyme immunoassay system.
Results are expressed as % inhibition of the cAMP accumulation induced by 10 μM FSK.

inhibition at 0.1 µM (5-HT1A human receptors; compound 10^−7 M, singlicate, [3H]-8-OH-DPAT 0.6-0.7 nM): 90%
IC50 (5-HT1A human receptors; [3H]-8-OH-DPAT, one binding site model, read-out: 5-HT1A Receptor Binding IC50): 3.3 nM
inhibition at 0.1 µM (D4 human receptors): 51%
inhibition at 10 µM [1]: 49%
Compound: O=c1n(C/C=C/CN2CCN(c3ncccn3)CC2)c2ccccc2n1CC1CCCCC1 [Compound 125]
